Counter-ions that a name gives are not always drawn. Like-named read-outs stand apart in the source and are kept apart here.

Experiment [1] relates to gastronintestinal motility. Put plainly: Mouse Cecal Test (inhibition of gastrointestinal motility, charcoal in cecum). The experiment is classed as in vivo, mouse (male Charles River mice). The conditions noted are these: po, read-out: ED50 ± S.E. (median effective dose), Mouse Cecal Test. From the text: The compounds of the present invention are useful in consequence of their valuable pharmacological properties. They are, for example, potent anti-diarrheal agents as evidenced by their ability to inhibit gastronintestinal motility as set out in the following tests:
The method used for this assay is a modification of the techniques previously described by Macht and BarbaGose, J. Amer. Pharm. Ass., 20, 558 (1931), and Janssen and Jageneau, J. Pharm. Pharmacol., 9, 381 (1957). Details are as follows:
A group of six, male Charles River mice weighing 20-25 g. which have been previously fasted for 24 hours are pretreated with the test compounds administered orally as a solution in water or suspended in 0.5% methyl cellulose. A constant volume of 10 ml./kg. is employed. Thirty minutes following administration of the test compounds, the animals are given a single oral dose of charcoal which consists of 0.2 ml. per mouse of 10% charcoal suspended in 1.0% methyl cellulose. Three and a half hours after charcoal administration, the animals are sacrificed and the cecum examined for the absence or presence of charcoal on an all-or-none basis.
The median effective dose (ED50) is then calculated for each compound using the logistic method of Berkson (1953).
The median effective dose ± standard Error ED50 ± SE) for the following representative compounds of the present invention in the Mouse Cecal Test are […]

Experiment [2] deals with castor oil-induced diarrhea. Description: Castor Oil-Induced Diarrhea in the Rat. The experiment is classed as in vivo, rat (adult Charles River male rats). To be noted: po, read-out: ED50 ± S.E. (median effective dose) at 2 hours past castor oil administration. How it is done:
Castor Oil-Induced Diarrhea in the Rat
Adult Charles River male rats are fasted in community cages for 24 hours prior to the test, with free access to water. The test compound is then administered intragastrically (suspended on 0.5% methyl cellulose) one hour prior to the intragastric adminstration of a dose of 1.0 ml. castor oil per rat. The rats are then observed for the presence or absence of diarrhea at hourly intervals for up to 8 hours past the castor oil adminstration. Using the method of Berkson (1953), the median effective dose (ED50) values are calculated at each hourly interval for the test compound.
The median effective dose at 2 hours past the castor oil adminstration for the following representative compounds of the present invention in the castor oil-induced diarrhea in the Rat test are: […]

[3] abbreviates: IG, test compound 30 minutes before charcoal, cecum examined 3.5 hours after charcoal.
The mark [4] stands for this setting: IG, test compound one hour before 1.0 ml castor oil, 2 hours past castor oil.

For `CCCCCC(CC1CC2CCN1CC2)(c1ccccc1)c1ccccc1.O=C(O)/C=C\C(=O)O` (centres unmarked) [2-(2,2-diphenylheptyl)-1-azabicyclo[2.2.2]octane maleate], the figures for the ED50 in experiment [1] and in experiment [2] (2 h) were 5.84 ± 1.94 mg/kg and 10.2 ± 1.43 mg/kg, respectively.

Take `CC(C)=CCC(CC1CC2CCN1CC2)(c1ccccc1)c1ccccc1` (centres unmarked) [2-(5-methyl-2,2-diphenylhex-4-enyl)-1-azabicyclo[2.2.2]octane]: the ED50 worked out at 1.45 ± 0.66 mg/kg in experiment [1] (setting [3]) and 1.74 ± 0.53 mg/kg in experiment [2] (setting [4]).

As to `C=CCC(CC1CC2CCN1CC2)(c1ccccc1)c1ccccc1` (centres unmarked) [2-(2,2-diphenyl-4-pentenyl)-1-azabicyclo[2.2.2]octane], the ED50 is 1.82 ± 0.45 mg/kg in experiment [1] (setting [3]) and 1.13 ± 0.18 mg/kg in experiment [2] (setting [4]).

Turning to `CCCCC(CC1CC2CCN1CC2)(c1ccccc1)c1ccccc1` (centres unmarked) [2-(2,2-diphenylhexyl)-1-azabicyclo[2.2.2]octane], the ED50 was determined as 8.74 ± 3.95 mg/kg in experiment [1] (setting [3]) and 4.57 ± 0.21 mg/kg in experiment [2] (setting [4]).

Take `CCCCCCC(CC1CC2CCN1CC2)(c1ccccc1)c1ccccc1.O=C(O)/C=C\C(=O)O` (centres unmarked) [2-(2,2-diphenyloctyl)-1-azabicyclo[2.2.2]octane maleate]: the ED50 in experiment [1] was determined as 20.7 ± 12.3 mg/kg.

`CCOC(=O)C1(c2ccccc2)CCN(CCC(C#N)(c2ccccc2)c2ccccc2)CC1` [Diphenoxylate . HCl, reference compound]: in experiment [1], the ED50 turned out to be 3.12 ± 1.29 mg/kg.

In the case of `CC(CC1CC2CCN1CC2)(c1ccccc1)c1ccccc1` (centres unmarked) [2-(2,2-diphenylpropyl)-1-azabicyclo[2.2.2]octane], in experiment [1] (setting [3]), the ED50 stood at 43.1 ± 15.5 mg/kg.

The record behind these values is patent US4125531A, “2-Substituted-1-azabicyclo[2.2.2]octanes” (G. D. Searle & Co., priority 1977, dated 1978).
